From patent US4698352A, “4-oxo-1,4-dihydronicotinic acid derivatives, salts thereof, and antibacterial agents containing the same” (Toyama Chemical Co., Ltd., priority 1982, dated 1987)
Values after ≈ are worked out from the molar mass of the structure shown. Like-named read-outs stand apart in the source and are kept apart here.

Assays:
Assay in all cases: Antibacterial activity (MIC), agar dilution
Format in all cases: cell-based
Aci. antitratus A-6 = conditions: 20 h, Aci. antitratus A-6; 10^6 cells per ml; 37° C., 20 hours; read-out: MIC
Excerpt: (§1) The amount of bacteria inoculated was 10^4 cells per plate (10^6 cells per ml).

E. coli NIHJ JC-2 = conditions: Escherichia coli, NIHJJC2, 20 h
Excerpt: as §1

E. coli TK-111 = conditions: Escherichia coli, TK111, 20 h, E. coli TK-111; 10^6 cells per ml; 37° C., 20 hours; read-out: MIC
Excerpt: as §1

Ent. cloacae IID977 = conditions: Enterobacter cloacae, IID977, 20 h
Excerpt: as §1

Kl. pneumoniae Y-41 = conditions: Klebsiella pneumoniae, Y41, 10^6 cells per ml, 37° C., 20 hours, read-out: MIC
Excerpt: as §1

Kl. pneumoniae Y-50 = conditions: Klebsiella pneumoniae, Y50, 20 h, 10^6 cells per ml, 37° C., read-out: MIC
Excerpt: as §1

Pro. mirabilis T-111 = conditions: Proteus mirabilis, 37° C.
Excerpt: as §1

Pro. morganii T-216 = conditions: Morganella morganii, 37° C.
Excerpt: as §1

Pro. vulgaris GN3027 = conditions: Proteus vulgaris, GN3027, 20 h, Pro. vulgaris GN3027; 10^6 cells per ml; 37° C., 20 hours; read-out: MIC
Excerpt: as §1

Ps. aeruginosa IFO3445 = conditions: Pseudomonas aeruginosa; Ps. aeruginosa IFO3445; 10^6 cells per ml; 37° C., 20 hours; read-out: MIC
Excerpt: as §1

Ps. aeruginosa S-68 = conditions: Pseudomonas aeruginosa
Excerpt: as §1

St. aureus FDA209P = conditions: Staphylococcus aureus, FDA209P, 20 h
Excerpt: as §1

E. coli TK-3* = conditions: Escherichia coli, 20 h
Excerpt: as §1
(§2) * Penicillinase-producing bacteria

Kl. pneumoniae Y-4* = conditions: Klebsiella pneumoniae, 20 h, Kl. pneumoniae Y-4, penicillinase-producing; 10^6 cells per ml; read-out: MIC
Excerpt: as §1, §2

Ps. aeruginosa GN3379* = conditions: Pseudomonas aeruginosa, 20 h; Ps. aeruginosa GN3379, penicillinase-producing; 10^6 cells per ml; read-out: MIC
Excerpt: as §1, §2

St. aureus F-137* = conditions: Staphylococcus aureus, 20 h, St. aureus F-137, penicillinase-producing; 10^6 cells per ml; read-out: MIC
Excerpt: as §1, §2

E. coli GN5482** = conditions: Escherichia coli
Excerpt: as §1
(§3) ** Cephalospolinase-producing bacteria

Pro. vulgaris GN76** = conditions: Proteus vulgaris
Excerpt: as §1, §3

Ps. aeruginosa GN918** = conditions: Pseudomonas aeruginosa, Ps. aeruginosa GN918, cephalospolinase-producing, 10^6 cells per ml
Excerpt: as §1, §3

[1] = E. coli NIHJ JC-2, 10^6 cells per ml, 37° C., 20 hours, read-out: MIC
[2] = Ent. cloacae IID977, 10^6 cells per ml, 37° C., 20 hours, read-out: MIC
[3] = T111, 10^6 cells per ml, 20 hours, read-out: MIC
[4] = T216, 10^6 cells per ml, 20 hours, read-out: MIC
[5] = S68, Ps. aeruginosa S-68, 10^6 cells per ml, 37° C., 20 hours, read-out: MIC
[6] = St. aureus FDA209P, 10^6 cells per ml, 37° C., 20 hours, read-out: MIC
[7] = E. coli TK-3, penicillinase-producing, 10^6 cells per ml, read-out: MIC
[8] = 20 h, E. coli GN5482, cephalospolinase-producing, 10^6 cells per ml, read-out: MIC
[9] = 20 h, Pro. vulgaris GN76, cephalospolinase-producing, 10^6 cells per ml, read-out: MIC

Compound	MIC (Aci. antitratus A-6) [µg/mL]	MIC (E. coli NIHJ JC-2; [1]) [µg/mL]	MIC (E. coli TK-111) [µg/mL]	MIC (Ent. cloacae IID977; [2]) [µg/mL]	MIC (Kl. pneumoniae Y-41) [µg/mL]	MIC (Kl. pneumoniae Y-50) [µg/mL]	MIC (Pro. mirabilis T-111; [3]) [µg/mL]	MIC (Pro. morganii T-216; [4]) [µg/mL]	MIC (Pro. vulgaris GN3027) [µg/mL]	MIC (Ps. aeruginosa IFO3445) [µg/mL]	MIC (Ps. aeruginosa S-68; [5]) [µg/mL]	MIC (St. aureus FDA209P; [6]) [µg/mL]	MIC (E. coli TK-3*; [7]) [µg/mL]	MIC (Kl. pneumoniae Y-4*) [µg/mL]	MIC (Ps. aeruginosa GN3379*) [µg/mL]	MIC (St. aureus F-137*) [µg/mL]	MIC (E. coli GN5482**; [8]) [µg/mL]	MIC (Pro. vulgaris GN76**; [9]) [µg/mL]	MIC (Ps. aeruginosa GN918**; 20 h, read-out: MIC) [µg/mL]	MIC (Pro. morganii T-216; T216, 20 h, 10^6 cells per ml) [µg/mL]	further results
O=C(O)c1cn(-c2ccc(O)cc2)c(-c2ccc(-n3cccn3)cc2)cc1=O	0.78 (≈ 2.09 µM)	0.1 (≈ 0.268 µM)	≤ 0.05	0.2 (≈ 0.536 µM)	0.78 (≈ 2.09 µM)	0.2 (≈ 0.536 µM)	3.13 (≈ 8.38 µM)	1.56 (≈ 4.18 µM)	0.39 (≈ 1.04 µM)	6.25 (≈ 16.7 µM)	6.25 (≈ 16.7 µM)	0.39 (≈ 1.04 µM)	0.2 (≈ 0.536 µM)	0.78 (≈ 2.09 µM)	6.25 (≈ 16.7 µM)	0.39 (≈ 1.04 µM)	≤ 0.05	1.56 (≈ 4.18 µM)	3.13 (≈ 8.38 µM)	–	–
Cc1nc(-c2ccc(-c3cc(=O)c(C(=O)O)cn3-c3ccc(O)cc3C)cc2)cs1	≤ 0.05	0.1 (≈ 0.239 µM)	≤ 0.05	0.39 (≈ 0.932 µM)	1.56 (≈ 3.73 µM)	0.2 (≈ 0.478 µM)	0.78 (≈ 1.86 µM)	–	0.39 (≈ 0.932 µM)	3.13 (≈ 7.48 µM)	3.13 (≈ 7.48 µM)	≤ 0.05	0.39 (≈ 0.932 µM)	1.56 (≈ 3.73 µM)	6.25 (≈ 14.9 µM)	≤ 0.05	≤ 0.05	0.39 (≈ 0.932 µM)	0.39 (≈ 0.932 µM)	1.56 (≈ 3.73 µM)	–
Cc1nc(-c2ccc(-c3cc(=O)c(C(=O)O)cn3-c3ccc(F)cc3)cc2)co1	0.2 (≈ 0.512 µM)	0.78 (≈ 2 µM)	0.39 (≈ 0.999 µM)	3.13 (≈ 8.02 µM)	6.25 (≈ 16 µM)	1.56 (≈ 4 µM)	–	–	0.39 (≈ 0.999 µM)	25 (≈ 64 µM)	–	0.39 (≈ 0.999 µM)	3.13 (≈ 8.02 µM)	12.5 (≈ 32 µM)	25 (≈ 64 µM)	0.39 (≈ 0.999 µM)	0.2 (≈ 0.512 µM)	3.13 (≈ 8.02 µM)	3.13 (≈ 8.02 µM)	6.25 (≈ 16 µM)	MIC (Pro. mirabilis T-111; T111, 20 h, 10^6 cells per ml): 6.25 µg/mL (≈ 16 µM); MIC (Ps. aeruginosa S-68; S68, 20 h): 12.5 µg/mL (≈ 32 µM)
CN1CCCc2cc(-c3cc(=O)c(C(=O)O)cn3-c3ccc(O)cc3)ccc21	0.39 (≈ 1.04 µM)	0.39 (≈ 1.04 µM)	0.2 (≈ 0.531 µM)	–	3.13 (≈ 8.32 µM)	1.56 (≈ 4.14 µM)	–	–	0.78 (≈ 2.07 µM)	12.5 (≈ 33.2 µM)	–	0.39 (≈ 1.04 µM)	–	6.25 (≈ 16.6 µM)	12.5 (≈ 33.2 µM)	0.2 (≈ 0.531 µM)	≤ 0.05	–	–	3.13 (≈ 8.32 µM)	MIC (Ent. cloacae IID977): 1.56 µg/mL (≈ 4.14 µM); MIC (Pro. mirabilis T-111; T111, 20 h, 10^6 cells per ml): 3.13 µg/mL (≈ 8.32 µM); MIC (Ps. aeruginosa S-68; S68, 20 h): 6.25 µg/mL (≈ 16.6 µM); MIC (E. coli TK-3*): 1.56 µg/mL (≈ 4.14 µM); MIC (Pro. vulgaris GN76**; GN76, 20 h): 1.56 µg/mL (≈ 4.14 µM); MIC (Ps. aeruginosa GN918**; GN918, 20 h): 3.13 µg/mL (≈ 8.32 µM)
CN1CCc2cc(-c3cc(=O)c(C(=O)O)cn3-c3ccc(O)cc3)ccc21	0.39 (≈ 1.08 µM)	0.2 (≈ 0.552 µM)	≤ 0.05	0.78 (≈ 2.15 µM)	1.56 (≈ 4.3 µM)	0.39 (≈ 1.08 µM)	3.13 (≈ 8.64 µM)	0.78 (≈ 2.15 µM)	0.2 (≈ 0.552 µM)	12.5 (≈ 34.5 µM)	6.25 (≈ 17.2 µM)	0.2 (≈ 0.552 µM)	0.39 (≈ 1.08 µM)	1.56 (≈ 4.3 µM)	6.25 (≈ 17.2 µM)	0.1 (≈ 0.276 µM)	≤ 0.05	0.39 (≈ 1.08 µM)	–	–	MIC (Ps. aeruginosa GN918**; GN918, 20 h): 1.56 µg/mL (≈ 4.3 µM)
CC1Cc2cc(-c3cc(=O)c(C(=O)O)cn3-c3ccc(O)cc3)ccc2O1 (stereo not drawn)	3.13 (≈ 8.61 µM)	–	0.78 (≈ 2.15 µM)	3.13 (≈ 8.61 µM)	6.25 (≈ 17.2 µM)	1.56 (≈ 4.29 µM)	–	3.13 (≈ 8.61 µM)	0.78 (≈ 2.15 µM)	50 (≈ 138 µM)	25 (≈ 68.8 µM)	–	3.13 (≈ 8.61 µM)	12.5 (≈ 34.4 µM)	25 (≈ 68.8 µM)	3.13 (≈ 8.61 µM)	–	3.13 (≈ 8.61 µM)	–	–	MIC (E. coli NIHJ JC-2): 1.56 µg/mL (≈ 4.29 µM); MIC (Pro. mirabilis T-111; T111, 20 h, 10^6 cells per ml): 12.5 µg/mL (≈ 34.4 µM); MIC (St. aureus FDA209P): 1.56 µg/mL (≈ 4.29 µM); MIC (E. coli GN5482**; GN5482, 20 h): 1.56 µg/mL (≈ 4.29 µM); MIC (Ps. aeruginosa GN918**; GN918, 20 h): 12.5 µg/mL (≈ 34.4 µM)
